For data set [1], the system named is murine bone marrow stern cells, colony-forming units/granulocytes-macrophages (CFU-GM). The experiment in a line: CFU-GM assay, in vitro cytotoxicity / bone marrow toxicity. Type of data set: cell-based. Conditions: for IC50: Mus musculus, in vitro. As to the method:
(§1) The cytostatic/cytotoxic compound Doxorubicin was also included as reference substance. All compounds were tested in 3-6 different experiments concentration dependently with,at least, doublicate or triplicate inclubations per concentration tested.
(§2) For assay conditions, please refer to description of Example 7.

Data set [2] has as its system murine bone marrow stern cells, colony-forming units/erythrocytes (CFU-E). Nature of the data set: CFU-E assay, in vitro cytotoxicity / bone marrow toxicity. Type of data set: cell-based. Conditions: for IC50: Mus musculus, Erythrocyte. As to the method:
as §1, §2

Another data set concerns L 1210 leukemia. The experiment in a line: Influence on the L 1210 leukemia in vivo: survival time. The arrangement: species or system mice.
[3] abbreviates: CFU-GM, mean ± SEM, Example 7, read-out: IC50 CFU-GM.
Setting [4] is: in vitro, mean ± SEM, Example 7, read-out: IC50 CFU-E.
The mark [5] stands for this setting: CFU-GM, mean, Example 10, read-out: Bone marrow toxicity CFU-GM, mean IC50.
Setting [6] is: in vitro, mean, Example 10, read-out: Bone marrow toxicity CFU-E, mean IC50.
The mark [7] stands for this setting: 5-FU-DMDOPE compared to 5-FU, table.

Data on 6 compounds can be found in patent US6025343A, “Lipid esters of nucleoside monophosphates and their use as immunosuppressive drugs” (Roche Diagnostics GmbH, priority 1994, dated 2000).

SMILES strings stand for the structures. Read-outs that look alike come from different tables or passages of the source.

Procedure for L 1210 leukemia: Mice were inoculated with L 1210 leukemia cells on day 0 (n=10 animals/group) and w ere then treated once daily i.p. from day 0 (+1 h)-day +41 (6 weeks) with the weekly cycles indicated on FIGS. 1 and 2, respectively.

Broadly, the IC50 is the concentration at which inhibition is half-maximal. Take `Sc1ncnc2nc[nH]c12` [6-Mercaptopurine, reference compound]: the IC50 in data set [1] (setting [3]) came out at 2.3 ng/mL; in data set [2] (setting [4]), 0.3 ng/mL.

Regarding `OC[C@H]1O[C@@H](n2cnc3c(S)ncnc32)[C@H](O)[C@@H]1O` [6-Mercaptopurinriboside, reference compound], the IC50 came to 2.3 ng/mL in data set [1] (setting [3]) and 0.3 ng/mL in data set [2] (setting [4]).

`COc1cccc2c1C(=O)c1c(O)c3c(c(O)c1C2=O)C[C@@](O)(C(=O)CO)C[C@@H]3O[C@H]1C[C@H](N)[C@H](O)[C@H](C)O1` [Doxorubicin, reference compound]: the figures for the IC50 in data set [1] (setting [3]) and in data set [2] (setting [4]) were 50 ng/mL and 1.7 ng/mL, respectively.

With `O=c1[nH]c(=O)n([C@@H]2O[C@H](CO)[C@@H](O)[C@H]2O)cc1F` [Example 5-FU, 5-Fluorouridine, reference compound], the IC50 in data set [1] (setting [5]) worked out at 4.96 nM; in data set [2] (setting [6]), 0.61 nM. Further, the dose-efficacy profile entry with L 1210 leukemia (i.p. once daily, weekly cycles, day 0 (+1 h)-day +41, FIG. 2) is “very narrow dose-efficacy profile”. Besides, the “survival rates on increasing the dose” value with L 1210 leukemia (i.p., from 2×10/5×0.1 to 2×10/5×0.3 mg kg^-1 day^-1 or even higher doses, FIG. 2) is listed as “reduced survival rates”.

As for `CCCCCCCCCCCCSCC(COP(=O)(O)OC[C@H]1O[C@@H](n2cc(F)c(=O)[nH]c2=O)[C@H](O)[C@@H]1O)OCCCCCCCCCC` (some centres unmarked) [Example 5-FU-DMDOPE, (5-Fluorouridine) -5'-phosphoric acid (3-dodecylmercapto 2 decyloxy) propyl ester], the “Bone marrow toxicity CFU-GM, ratio to 5-FU” value in data set [1] (setting [7]) is reported as 238 ×. In data set [1] (CFU-GM), the “less toxic on granulocyte/macrophage bone marrow stem cells compared to 5-FU” value was 238 times. Besides, the IC50 in data set [1] (setting [5]) was 1180 nM; in data set [2] (setting [6]) it was 372 nM. For the same compound, the “therapeutic index/ratio compared to 5-FU” value with L 1210 leukemia (concluded from efficacy (FIGS. 1 and 2) and bone marrow toxicity) was “much higher therapeutic index/ratio”. In addition, the “survival time compared to control I and II” value in the data set on L 1210 leukemia (i.p. once daily, weekly cycles, day 0 (+1 h)-day +41, FIG. 1) is “clear dose-dependent increase in survival time”. Further, the “efficacy compared to 5-FU” value with L 1210 leukemia (leukemia model, equimolar doses, FIGS. 1 and 2) is given as “clearly more effective”. For the same compound, the “Bone marrow toxicity CFU-E, ratio to 5-FU” value in data set [2] (setting [7]) worked out at 610 ×. The “less toxic on erythrocyte bone marrow stem cells compared to 5-FU” value in data set [2] (CFU-E) was 610 times. Besides, the “toxicity on bone marrow cells compared to 5-FU” value in data set [2] (in words, CFU-E and CFU-GM) was “much less toxic on bone marrow cells”.

Regarding `CCCCCCCCCCCCSCC(COP(=O)(O)OC[C@H]1O[C@@H](n2cnc3c(S)ncnc32)[C@H](O)[C@@H]1O)OCCCCCCCCCC` (stereo partly drawn) [Example 6-MPR-DMDOPE, (6-Mercaptopurine-9-β-D-ribofuranoside)-5'-phosphoric acid (3-dodecylmercapto-2-decyloxy) propyl ester], the IC50 came out at 247 ng/mL in data set [1] (setting [3]) and 56 ng/mL in data set [2] (setting [4]). Also, in data set [2] (in vitro, CFU-E and CFU-GM, compared to Azathioprine, 6-MP, 6-Mercaptopurinriboside, Doxorubicin), the “tolerability by bone marrow stem cells” value is given as “much better tolerated by the bone marrow stern cells compared to all other compounds tested”.
